Data on 13 compounds can be found in patent US8580794B2 (AbbVie Inc., priority 2009, dated 2013).

This test addresses GST-Bc1-2 (Homo sapiens, UniProt P10415). The experiment in a line: Time Resolved-Fluorescence Resonance Energy Transfer (TR-FRET) Bcl-2 binding assay with F-Bak peptide probe. To be noted: GST-Bcl-2 1 nM, F-Bak probe 100 nM, Tb-anti-GST 1 nM; '<' = below limit of detection; read-out: TR-FRET Bcl-2 Binding Ki.

Chain of GST-Bc1-2 (P10415 whole entry): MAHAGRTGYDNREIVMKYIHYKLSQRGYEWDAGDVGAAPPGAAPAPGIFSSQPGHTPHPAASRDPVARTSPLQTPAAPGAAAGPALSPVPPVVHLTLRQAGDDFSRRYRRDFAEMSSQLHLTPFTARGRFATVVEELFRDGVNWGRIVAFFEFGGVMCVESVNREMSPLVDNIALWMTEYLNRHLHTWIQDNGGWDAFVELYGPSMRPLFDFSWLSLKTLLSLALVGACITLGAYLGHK

In the case of `CC1(C)CCC(CN2CCN(c3ccc(C(=O)NS(=O)(=O)c4ccc(NCC56CC7CC(C5)C(O)C(C7)C6)c([N+](=O)[O-])c4)c(Oc4cnc5[nH]ccc5c4)c3)CC2)=C(c2ccc(Cl)cc2)C1` (stereo not shown) [Example 199, 4-(4-{[2-(4-chlorophenyl)-4,4-dimethylcyclohex-1-en-1-yl]methyl}piperazin-1-yl)-N-{[4-({[(E)-4-hydroxy-1-adamantyl]methyl}amino)-3-nitrophenyl]sulfonyl}-2-(1H-pyrrolo[2,3-b]pyridin-5-yloxy)benzamide], the Ki is below 0.01 nM.

On to `CC1(C)CCC(CN2CCN(c3ccc(C(=O)NS(=O)(=O)c4ccc(NCC56CC7CC(C5)C(O)C(C7)C6)c([N+](=O)[O-])c4)c(Oc4cnc5[nH]ccc5c4)c3)CC2)=C(c2ccc(Cl)cc2)C1` (stereo not shown) [Example 200, 4-(4-{[2-(4-chlorophenyl)-4,4-dimethylcyclohex-1-en-1-yl]methyl}piperazin-1-yl)-N-{[4-({[(Z)-4-hydroxy-1-adamantyl]methyl}amino)-3-nitrophenyl]sulfonyl}-2-(1H-pyrrolo[2,3-b]pyridin-5-yloxy)benzamide], for which the Ki was below 0.01 nM.

As to `CC1(C)CCC(CN2CCN(c3ccc(C(=O)NS(=O)(=O)c4ccc(OCC5C[C@H]6C=C[C@@H]5C6)c([N+](=O)[O-])c4)c(Oc4cnc5[nH]ccc5c4)c3)CC2)=C(c2ccc(Cl)cc2)C1` (stereo partly drawn) [Example 201, N-({4-[(1S,4S)-bicyclo[2.2.1]hept-5-en-2-ylmethoxy]-3-nitrophenyl}sulfonyl)-4-(4-{[2-(4-chlorophenyl)-4,4-dimethylcyclohex-1-en-1-yl]methyl}piperazin-1-yl)-2-(1H-pyrrolo[2,3-b]pyridin-5-yloxy)benzamide], the Ki was 0.014 nM.

On to `CN1CC(Nc2ccc(S(=O)(=O)NC(=O)c3ccc(N4CCN(CC5=C(c6ccc(Cl)cc6)CC(C)(C)CC5)CC4)cc3Oc3cnc4[nH]ccc4c3)cc2[N+](=O)[O-])CC1=O` (stereo not shown) [Example 202, 4-(4-{[2-(4-chlorophenyl)-4,4-dimethylcyclohex-1-en-1-yl]methyl}piperazin-1-yl)-N-({4-[(1-methyl-5-oxopyrrolidin-3-yl)amino]-3-nitrophenyl}sulfonyl)-2-(1H-pyrrolo[2,3-b]pyridin-5-yloxy)benzamide], for which the Ki is below 0.01 nM.

In the case of `CC1(C)CCC(CN2CCN(c3ccc(C(=O)NS(=O)(=O)c4ccc(OCC5CCCC(=O)C5)c([N+](=O)[O-])c4)c(Oc4cnc5[nH]ccc5c4)c3)CC2)=C(c2ccc(Cl)cc2)C1` (stereo not shown) [Example 205, 4-(4-{[2-(4-chlorophenyl)-4,4-dimethylcyclohex-1-en-1-yl]methyl}piperazin-1-yl)-N-({3-nitro-4-[(3-oxocyclohexyl)methoxy]phenyl}sulfonyl)-2-(1H-pyrrolo[2,3-b]pyridin-5-yloxy)benzamide], the Ki is below 0.01 nM.

On to `CC1(C)C=CC(c2ccc(Cl)cc2)=C(CN2CCN(c3ccc(C(=O)NS(=O)(=O)c4ccc(NCC5CCOCC5)c([N+](=O)[O-])c4)c(Oc4cnc5[nH]ccc5c4)c3)CC2)C1` [Example 206, 4-(4-{[2-(4-chlorophenyl)-5,5-dimethylcyclohexa-1,3-dien-1-yl]methyl}piperazin-1-yl)-N-({3-nitro-4-[(tetrahydro-2H-pyran-4-ylmethyl)amino]phenyl}sulfonyl)-2-(1H-pyrrolo[2,3-b]pyridin-5-yloxy)benzamide], for which the Ki was 0.036 nM.

On to `CC1(C)CCC(CN2CCN(c3ccc(C(=O)NS(=O)(=O)c4ccc(N[C@@H]5CCN(C(CF)CF)C5)c([N+](=O)[O-])c4)c(Oc4cnc5[nH]ccc5c4)c3)CC2)=C(c2ccc(Cl)cc2)C1` [Example 207, 4-(4-{[2-(4-chlorophenyl)-4,4-dimethylcyclohex-1-en-1-yl]methyl}piperazin-1-yl)-N-{[4-({(3R)-1-[2-fluoro-1-(fluoromethyl)ethyl]pyrrolidin-3-yl}amino)-3-nitrophenyl]sulfonyl}-2-(1H-pyrrolo[2,3-b]pyridin-5-yloxy)benzamide], for which the Ki was found to be 0.03 nM.

Regarding `CC1(C)CCC(CN2CCN(c3ccc(C(=O)NS(=O)(=O)c4cnc(OCC5(F)CCOCC5)c(C(F)(F)F)c4)c(Oc4cnc5[nH]ccc5c4)c3)CC2)=C(c2ccc(Cl)cc2)C1` [Example 208, 4-(4-{[2-(4-chlorophenyl)-4,4-dimethylcyclohex-1-en-1-yl]methyl}piperazin-1-yl)-N-{[6-[(4-fluorotetrahydro-2H-pyran-4-yl)methoxy]-5-(trifluoromethyl)pyridin-3-yl]sulfonyl}-2-(1H-pyrrolo[2,3-b]pyridin-5-yloxy)benzamide], the Ki was found to be 0.104 nM.

On to `CC1(C)CCC(CN2CCN(c3ccc(C(=O)NS(=O)(=O)c4ccc(NC[C@@H]5CCN(C6COC6)C5)c([N+](=O)[O-])c4)c(Oc4cnc5[nH]ccc5c4)c3)CC2)=C(c2ccc(Cl)cc2)C1` [Example 209, 4-(4-{[2-(4-chlorophenyl)-4,4-dimethylcyclohex-1-en-1-yl]methyl}piperazin-1-yl)-N-{[3-nitro-4-({[(3S)-1-oxetan-3-ylpyrrolidin-3-yl]methyl}amino)phenyl]sulfonyl}-2-(1H-pyrrolo[2,3-b]pyridin-5-yloxy)benzamide], for which the inhibitory constant (Ki) was below 0.01 nM.

`CO[C@H]1CC[C@H](COc2ncc(S(=O)(=O)NC(=O)c3ccc(N4CCN(CC5=C(c6ccc(Cl)cc6)CC(C)(C)CC5)CC4)cc3Oc3cnc4[nH]ccc4c3)cc2Cl)CC1` [Example 210, Trans-N-({5-chloro-6-[(4-methoxycyclohexyl)methoxy]pyridin-3-yl}sulfonyl)-4-(4-{[2-(4-chlorophenyl)-4,4-dimethylcyclohex-1-en-1-yl]methyl}piperazin-1-yl)-2-(1H-pyrrolo[2,3-b]pyridin-5-yloxy)benzamide]: the Ki worked out at 0.011 nM.

`CO[C@H]1CC[C@@H](COc2ncc(S(=O)(=O)NC(=O)c3ccc(N4CCN(CC5=C(c6ccc(Cl)cc6)CC(C)(C)CC5)CC4)cc3Oc3cnc4[nH]ccc4c3)cc2Cl)CC1` [Example 211, Cis-N-({5-chloro-6-[(4-methoxycyclohexyl)methoxy]pyridin-3-yl}sulfonyl)-4-(4-{[2-(4-chlorophenyl)-4,4-dimethylcyclohex-1-en-1-yl]methyl}piperazin-1-yl)-2-(1H-pyrrolo[2,3-b]pyridin-5-yloxy)benzamide]: the Ki came out at 0.058 nM.

For `COCCOCCN1CCOC(CNc2ccc(S(=O)(=O)NC(=O)c3ccc(N4CCN(CC5=C(c6ccc(Cl)cc6)CC(C)(C)CC5)CC4)cc3Oc3cnc4[nH]ccc4c3)cc2[N+](=O)[O-])C1` (stereo not shown) [Example 213, 4-(4-{[2-(4-chlorophenyl)-4,4-dimethylcyclohex-1-en-1-yl]methyl}piperazin-1-yl)-N-({4-[({4-[2-(2-methoxyethoxy)ethyl]morpholin-2-yl}methyl)amino]-3-nitrophenyl}sulfonyl)-2-(1H-pyrrolo[2,3-b]pyridin-5-yloxy)benzamide], the Ki is below 0.01 nM.

Take `CC1(C)CCC(CN2CCN(c3ccc(C(=O)NS(=O)(=O)c4ccc(NCC5CN(CC#N)CCO5)c([N+](=O)[O-])c4)c(Oc4cnc5[nH]ccc5c4)c3)CC2)=C(c2ccc(Cl)cc2)C1` (stereo not shown) [Example 214, 4-(4-{[2-(4-chlorophenyl)-4,4-dimethylcyclohex-1-en-1-yl]methyl}piperazin-1-yl)-N-{[4-({[4-(cyanomethyl)morpholin-2-yl]methyl}amino)-3-nitrophenyl]sulfonyl}-2-(1H-pyrrolo[2,3-b]pyridin-5-yloxy)benzamide]: the Ki was below 0.01 nM.
